Data on five molecules can be found in patent publication US20240408062A1 (Purdue Research Foundation, priority 2022, published 2024).

Molecules are shown by their SMILES.

The assay has as its target SARS-CoV-2 3CLpro (Severe acute respiratory syndrome coronavirus 2, UniProt P0DTD1). The assay is described as follows: Inhibition of SARS-CoV-2 3CLpro, continuous fluorescence assay with FRET-based substrate UIVT3. Conditions: FRET substrate UIVT3, 50-200 nM enzyme, pH 7.5, 25° C. The assay is classed as biochemical. The method, then: Kinetic assays were performed in Costar 3694 EIA/RIA 96-well half-area, flat bottom, black polystyrene plates (Corning, Corning, NY) at 25° C. The increase in fluorescence intensity was measured at an emission wavelength of 528 nm (20 nm bandwidth) using an excitation wavelength of 485 (bandwidth 20 nm) using a CLARIOstar Plate Reader (BMG Labtech, Cary, NC). The initial rates of the reactions were determined from the slopes of the Relative Fluorescence Units (RFU) versus time (RFU min^−1). Inhibition data were collected and analyzed as described previously.
Consider `COc1cccc2[nH]c(C(=O)N[C@@H](CC(C)C)C(=O)N[C@@H](C[C@@H]3CCNC3=O)C(=O)C(=O)c3ccccc3)cc12` [Compound 1], for which the “Activity of SARS-CoV-2 Mpro inhibitors” value was “A++ (A++ < 1 μM)”.
Regarding `CC(C)C[C@@H](C(=O)N[C@@H](C[C@@H]1CCNC1=O)C(=O)C(=O)c1ccccc1)N(C)C(=O)[C@@H](NC(=O)C(F)(F)F)C(C)(C)C` [Compound 2], the “Activity of SARS-CoV-2 Mpro inhibitors” value is “A+ (A+ < 10 μM)”.
On to `CN(C(=O)[C@@H](NC(=O)C(F)(F)F)C(C)(C)C)[C@H](CC1CCCC1)C(=O)NC(C[C@@H]1CCNC1=O)C(=O)C(=O)c1ccccc1` (some centres unmarked) [Compound 3], for which the “Activity of SARS-CoV-2 Mpro inhibitors” value is “A+ (A+ < 10 μM)”.
The entry for `CC(C)C[C@H](CC(=O)[C@@H](NC(=O)C(F)(F)F)C(C)(C)C)C(=O)N[C@@H](C[C@@H]1CCNC1=O)C(=O)C(=O)c1ccccc1` [Compound 4] is “A++ (A++ < 1 μM)”; for `CC(C)C[C@@H](C(=O)N[C@@H](CC1CCCNC1=O)C(=O)C(=O)c1ccccc1)N(C)C(=O)[C@@H](NC(=O)C(F)(F)F)C(C)(C)C` (some centres unmarked) [Compound 5] it is “A++ (A++ < 1 μM)”.
